Results taken from patent publication EP0330444A2, “Novel thiorhodamines and a novel method of preparation” (EASTMAN KODAK COMPANY (a New Jersey corporation), priority 1988, dated 1989).

Key:
[1] = system: A549 Human Lung Carcinoma; test: In vitro IC50, adhering monolayer culture, neutral red staining, inhibition of cell growth; type: cell-based; settings: 3 hours drug exposure under red light, then about 7 days growth (four cell-doubling times), neutral red absorbence at 540 nm, read-out: IC₅₀ A549 Human Lung Carcinoma
From the text: (§1) The following is the procedure carried out in ascertaining the IC₅₀ concentrations of the thiorhodamines of this invention. (IC₅₀ is the in vitro molar concentration that inhibits 50% of tumor growth. The smaller the concentration, the higher the toxicity.):
(§2) For the IC₅₀ values for the human colon carcinoma and the human lung carcinoma lines, an adhering monolayer culture was used. Two days prior to plating, a number of cells obtained from the American Type Tissue Culture Collection was selected to grow as a stock, the number being that which would ensure the cells had not reached their plateau at the time of the in vitro test. On day 1 of the assay, asynchronous exponentially growing cells from this stock were suspended in a conventional complete medium comprising RPMI 1640 medium supplemented with 5% (v/v) fetal calf serum and 5% (v/v) NU serum obtained from Collaborative Research, and 20mM HEPES buffer, i.e., 4-(2-hydroxyethyl)-1-piperazineethanesulfonic acid. This was plated into a conventional 96-well tissue culture plate using a Cetus/Perkin Elmer automated pipetting device equipped with a dual supply manifold. The cells were then incubated for 48 hours at 37°C in a humidified atmosphere containing 5% CO₂. The cells were then incubated under red light for 3 hours in the presence of varying amounts of the compound of interest at 37°C in a humidified incubator containing 5% CO₂. Compounds were tested over a 6-log range of concentrations. After 3 hours the drug treated cells were then rinsed one time with complete medium as set forth above, and incubated in the complete medium the length of time appropriate to achieve four cell-doubling times (roughly 7 days for these cell lines). The medium was removed and the cells stained for 1-2 hours at 37°C with 0.1% (w/v) neutral red dye obtained from Eastman Kodak Co., dissolved in phosphate buffered saline (PBS) (without calcium or magnesium cations) at a pH of 6.85. The cells were rinsed twice with the same PBS and dried. Excess neutral red dye was eluted from each well with 50% (v/v) ethanol in 1% (v/v) glacial acetic acid. The absorbence of each well was quantitated using a Perkin-Elmer absorbence densitometer set at 540 nm. The % of inhibition of cell growth for a given concentration of compound was calculated using the equation: [formula] where At = absorbence of the cells treated with the candidate drug, Au = absorbence of the control treated with solvent only, and Ab = absorbence of the media and well only (background). […] The plotted data was then fitted to the curve for the function: F(x) = 100 - [100(X/A)^B/(1+(X/A)^B)] where x = the concentration of the test compound, A = the IC₅₀ value (50% inhibition on the plot) and B=the exponent of the fitted function. […]

[2] = system: CX-1 Human Colon Carcinoma; test: as above; type: cell-based; settings: 3 hours drug exposure under red light, then about 7 days growth (four cell-doubling times), neutral red absorbence at 540 nm, read-out: IC₅₀ CX-1 Human Colon Carcinoma
From the text: as §1, §2

| Structure (SMILES) | IC50 [1] [nM] | IC50 [2] [nM] |
| --- | --- | --- |
| COC(=O)c1ccccc1-c1c2ccc(N(C)C)cc2[s+]c2cc(N(C)C)ccc12 [Prep. 4, 3,6-bis(dimethylamino)-9-(2-methoxycarbonylphenyl)thioxanthylium chloride] | 810 | 810 |
| COC(=O)c1ccccc1-c1c2ccc(=N)cc-2oc2cc(N)ccc12 [Rhodamine 123] | > 12500 | > 12500 |
